# Results as given in ChEMBL document CHEMBL3044830, “Synthesis, characterization, antibacterial, antifungal, and immunomodulating activities of gatifloxacin derivatives” (Med Chem Res, 2010).
# Columns and labels:
# Pseudomonas aeruginosa [1] = test: Antibacterial activity against Pseudomonas aeruginosa assessed as zone of inhibition at 5 to 40 ug/ml after 18 to 24 hr by disk diffusion method relative to gatifloxacin; assay type: functional
# Shigella flexneri [2] = test: Antibacterial activity against Shigella flexneri assessed as concentration required to obtain a zone of inhibition of 20 mm after 18 to 24 hr by disk diffusion method; assay type: functional
# Pseudomonas aeruginosa [3] = test: Antibacterial activity against Pseudomonas aeruginosa assessed as concentration required to obtain a zone of inhibition of 5 mm after 18 to 24 hr by disk diffusion method; assay type: functional
# Escherichia coli [4] = test: Antibacterial activity against Escherichia coli assessed as concentration required to obtain a zone of inhibition of 10 mm after 18 to 24 hr by disk diffusion method; assay type: functional
# Bacillus subtilis [5] = test: Antibacterial activity against Bacillus subtilis assessed as concentration required to obtain a zone of inhibition of 20 mm after 18 to 24 hr by disk diffusion method; assay type: functional
# Citrobacter [6] = test: Antibacterial activity against Citrobacter assessed as concentration required to obtain a zone of inhibition of 5 mm after 18 to 24 hr by disk diffusion method; assay type: functional
# Klebsiella pneumoniae [7] = test: Antibacterial activity against Klebsiella pneumoniae assessed as concentration required to obtain a zone of inhibition of 20 mm after 18 to 24 hr by disk diffusion method; assay type: functional
# Shigella sp. [8] = test: Antibacterial activity against Shigella typhi assessed as zone of inhibition after 18 to 24 hr by disc diffusion method relative to gatifloxacin; assay type: functional
# Bacillus subtilis [9] = test: Antibacterial activity against Bacillus subtilis assessed as concentration required to obtain a zone of inhibition of 5 mm after 18 to 24 hr by disk diffusion method; assay type: functional
# Klebsiella pneumoniae [10] = test: Antibacterial activity against Klebsiella pneumoniae assessed as concentration required to obtain a zone of inhibition of 10 mm after 18 to 24 hr by disk diffusion method; assay type: functional
# Escherichia coli [11] = test: Antibacterial activity against Escherichia coli assessed as concentration required to obtain a zone of inhibition of 20 mm after 18 to 24 hr by disk diffusion method; assay type: functional
# Bacillus subtilis [12] = test: Antibacterial activity against Bacillus subtilis assessed as zone of inhibition at 5 to 40 ug/ml after 18 to 24 hr by disk diffusion method relative to gatifloxacin; assay type: functional
# Escherichia coli [13] = test: Antibacterial activity against Escherichia coli assessed as zone of inhibition at 5 to 40 ug/ml after 18 to 24 hr by disk diffusion method relative to gatifloxacin; assay type: functional
# [14] = Antibacterial activity against Hofmanni bacterium assessed as concentration required to obtain a zone of inhibition of 20 mm after 18 to 24 hr by disc diffusion method
# [15] = Antibacterial activity against Hofmanni bacterium assessed as concentration required to obtain a zone of inhibition of 10 mm after 18 to 24 hr by disc diffusion method
# Shigella flexneri [16] = test: Antibacterial activity against Shigella flexneri assessed as zone of inhibition at 5 to 40 ug/ml after 18 to 24 hr by disk diffusion method relative to gatifloxacin; assay type: functional
# [17] = Antibacterial activity against Hofmanni bacterium assessed as concentration required to obtain a zone of inhibition of 5 mm after 18 to 24 hr by disc diffusion method
# Citrobacter [18] = test: Antibacterial activity against Citrobacter assessed as concentration required to obtain a zone of inhibition of 10 mm after 18 to 24 hr by disk diffusion method; assay type: functional
# Proteus mirabilis [19] = test: Antibacterial activity against Proteus mirabilis assessed as zone of inhibition at 5 to 40 ug/ml after 18 to 24 hr by disc diffusion method relative to gatifloxacin; assay type: functional
# Pseudomonas aeruginosa [20] = test: Antibacterial activity against Pseudomonas aeruginosa assessed as concentration required to obtain a zone of inhibition of 10 mm after 18 to 24 hr by disk diffusion method; assay type: functional
# Bacillus subtilis [21] = test: Antibacterial activity against Bacillus subtilis assessed as concentration required to obtain a zone of inhibition of 10 mm after 18 to 24 hr by disk diffusion method; assay type: functional
# Citrobacter [22] = test: Antibacterial activity against Citrobacter assessed as zone of inhibition at 5 to 40 ug/ml after 18 to 24 hr by disk diffusion method relative to gatifloxacin; assay type: functional
# Shigella flexneri [23] = test: Antibacterial activity against Shigella flexneri assessed as concentration required to obtain a zone of inhibition of 10 mm after 18 to 24 hr by disk diffusion method; assay type: functional
# Proteus mirabilis [24] = test: Antibacterial activity against Proteus mirabilis assessed as concentration required to obtain a zone of inhibition of 10 mm after 18 to 24 hr by disc diffusion method; assay type: functional
# Staphylococcus aureus [25] = test: Antibacterial activity against methicillin-resistant Staphylococcus aureus assessed as concentration required to obtain a zone of inhibition of 5 mm after 18 to 24 hr by disk diffusion method; assay type: functional
# Shigella sp. [26] = test: Antibacterial activity against Shigella typhi assessed as concentration required to obtain a zone of inhibition of 10 mm after 18 to 24 hr by disc diffusion method; assay type: functional
# Proteus mirabilis [27] = test: Antibacterial activity against Proteus mirabilis assessed as concentration required to obtain a zone of inhibition of 20 mm after 18 to 24 hr by disc diffusion method; assay type: functional
# Shigella sp. [28] = test: Antibacterial activity against Shigella typhi assessed as concentration required to obtain a zone of inhibition of 5 mm after 18 to 24 hr by disc diffusion method; assay type: functional
# Klebsiella pneumoniae [29] = test: Antibacterial activity against Klebsiella pneumoniae assessed as concentration required to obtain a zone of inhibition of 5 mm after 18 to 24 hr by disk diffusion method; assay type: functional
# Klebsiella pneumoniae [30] = test: Antibacterial activity against Klebsiella pneumoniae assessed as zone of inhibition at 5 to 40 ug/ml after 18 to 24 hr by disk diffusion method relative to gatifloxacin; assay type: functional
# Staphylococcus aureus [31] = test: Antibacterial activity against methicillin-resistant Staphylococcus aureus assessed as concentration required to obtain a zone of inhibition of 20 mm after 18 to 24 hr by disk diffusion method; assay type: functional
# Pseudomonas aeruginosa [32] = test: Antibacterial activity against Pseudomonas aeruginosa assessed as concentration required to obtain a zone of inhibition of 20 mm after 18 to 24 hr by disk diffusion method; assay type: functional
# [33] = Antibacterial activity against Hofmanni bacterium assessed as zone of inhibition after 18 to 24 hr by disc diffusion method relative to gatifloxacin
# Proteus mirabilis [34] = test: Antibacterial activity against Proteus mirabilis assessed as concentration required to obtain a zone of inhibition of 5 mm after 18 to 24 hr by disc diffusion method; assay type: functional
# Escherichia coli [35] = test: Antibacterial activity against Escherichia coli assessed as concentration required to obtain a zone of inhibition of 5 mm after 18 to 24 hr by disk diffusion method; assay type: functional
# Citrobacter [36] = test: Antibacterial activity against Citrobacter assessed as concentration required to obtain a zone of inhibition of 20 mm after 18 to 24 hr by disk diffusion method; assay type: functional
# Staphylococcus aureus [37] = test: Antibacterial activity against methicillin-resistant Staphylococcus aureus assessed as zone of inhibition at 5 to 40 ug/ml after 18 to 24 hr by disk diffusion method relative to gatifloxacin; assay type: functional
# Shigella flexneri [38] = test: Antibacterial activity against Shigella flexneri assessed as concentration required to obtain a zone of inhibition of 5 mm after 18 to 24 hr by disk diffusion method; assay type: functional
compound,measurement,setting,value
CO/N=C1\CN(c2nc3c(cc2F)c(=O)c(C(=O)O)cn3C2CC2)CC1CN.CS(=O)(=O)O (stereo not drawn) [GEMIFLOXACIN MESYLATE],inhibition zone (IZ),Pseudomonas aeruginosa [1],75%
same,Activity,Shigella flexneri [2],13 µg/mL
same,Activity,Pseudomonas aeruginosa [3],8 µg/mL
same,Activity,Escherichia coli [4],9 µg/mL
same,Activity,Bacillus subtilis [5],8 µg/mL
same,Activity,Citrobacter [6],7 µg/mL
same,Activity,Klebsiella pneumoniae [7],12 µg/mL
same,inhibition zone (IZ),Shigella sp. [8],75.5%
same,Activity,Bacillus subtilis [9],5 µg/mL
same,Activity,Klebsiella pneumoniae [10],11 µg/mL
same,Activity,Escherichia coli [11],10 µg/mL
same,inhibition zone (IZ),Bacillus subtilis [12],46.3%
same,inhibition zone (IZ),Escherichia coli [13],75.72%
same,Activity,[14],8 µg/mL
same,Activity,[15],7 µg/mL
same,inhibition zone (IZ),Shigella flexneri [16],61.4%
same,Activity,[17],5 µg/mL
same,Activity,Citrobacter [18],9 µg/mL
same,inhibition zone (IZ),Proteus mirabilis [19],82.5%
same,Activity,Pseudomonas aeruginosa [20],9 µg/mL
same,Activity,Bacillus subtilis [21],7 µg/mL
same,inhibition zone (IZ),Citrobacter [22],42.83%
same,Activity,Shigella flexneri [23],8 µg/mL
same,Activity,Proteus mirabilis [24],11 µg/mL
same,Activity,Staphylococcus aureus [25],9 µg/mL
same,Activity,Shigella sp. [26],9 µg/mL
same,Activity,Proteus mirabilis [27],12 µg/mL
same,Activity,Shigella sp. [28],8 µg/mL
same,Activity,Klebsiella pneumoniae [29],10 µg/mL
same,inhibition zone (IZ),Klebsiella pneumoniae [30],84.2%
same,Activity,Staphylococcus aureus [31],14 µg/mL
same,Activity,Pseudomonas aeruginosa [32],10 µg/mL
same,inhibition zone (IZ),[33],56.6%
same,Activity,Proteus mirabilis [34],10 µg/mL
same,Activity,Escherichia coli [35],7 µg/mL
same,Activity,Citrobacter [36],11 µg/mL
same,inhibition zone (IZ),Staphylococcus aureus [37],69.8%
same,Activity,Shigella flexneri [38],7 µg/mL
